The target of assay [1] is T1, human orexin-2 receptor (OX2R) (Homo sapiens, UniProt O43614).
T1 construct: expressed in transfected cells; host or cells: CHO cells (G418 selection)
T1 sequence (O43614 1-444): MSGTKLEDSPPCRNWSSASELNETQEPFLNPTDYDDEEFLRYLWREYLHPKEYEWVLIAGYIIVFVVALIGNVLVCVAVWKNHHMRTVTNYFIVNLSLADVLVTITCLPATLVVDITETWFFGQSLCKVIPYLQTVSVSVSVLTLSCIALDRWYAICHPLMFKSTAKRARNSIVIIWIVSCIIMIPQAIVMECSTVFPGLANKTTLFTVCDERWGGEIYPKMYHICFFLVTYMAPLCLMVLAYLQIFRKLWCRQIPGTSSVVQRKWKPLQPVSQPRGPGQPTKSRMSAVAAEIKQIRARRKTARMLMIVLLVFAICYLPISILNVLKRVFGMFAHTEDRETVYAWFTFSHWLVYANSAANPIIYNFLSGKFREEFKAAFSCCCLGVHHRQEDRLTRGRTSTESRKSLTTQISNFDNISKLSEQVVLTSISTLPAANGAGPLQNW
Description: In vitro orexin antagonism assay: intracellular calcium measurement (FLIPR), orexin-A 3 nM as agonist. It counts as cell-based. The note with it: for IC50: first value of IC50/Kb cell; for inhibition at 1 µM: read-out: OX2R, % Inh. @ 1 uM; for Kb: second value of IC50/Kb cell. An outline of the steps: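 Fluorescence peak on 3 nM orexin-A challenge, read by FLIPR and compared with vehicle, yields IC50 (geometric mean when repeated; may be normalized to an on-plate reference). Antagonists were added 120 min beforehand to fluo-4-loaded recombinant CHO cells expressing human OX1R or OX2R.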
(Calcium flux is commonly read through the fluorescence of an indicator in the cells.)

The target in assay [2] is T2, human k-opioid receptor (kOR) (Homo sapiens, UniProt P41145).
T2 construct: expressed in transfected cells; host or cells: RBL cells (membrane homogenates)
Description: Human k-opioid (KOP) receptor (agonist radioligand [3H]U-69593) binding assay, transfected RBL cell membranes. The note with it: for inhibition at 1 µM: read-out: KOR % Inh. @ 1 uM. Here is the method: Human k-Opioid (KOP) Receptor (Agonist Radioligand) Binding Assay
Purpose: Evaluation of the affinity of compounds for the human k-opioid receptor in transfected RBL cells determined in a radioligand binding assay.
Experimental protocol: Cell membrane homogenates (about 80 μg protein) are incubated for 60 min at 22° C. with 0.5 nM [3H]U-69593 in the absence or presence of the test compound in a buffer containing 50 mM Tris-HCl (pH 7.4), 10 mM MgCl2 and 1 mM EDTA. Nonspecific binding is determined in the presence of 10 μM naloxone. Following incubation, the samples are filtered rapidly under vacuum through glass fiber filters ([…], Packard) presoaked with 0.3% PEI and rinsed several times with ice-cold 50 mM Tris-HCl using a 96-sample cell harvester (Unifilter, Packard). The filters are dried then counted for radioactivity in a scintillation counter (Topcount, Packard) using a scintillation cocktail (Microscint 0, Packard). The results are expressed as a percent inhibition of the control radioligand specific binding. The standard reference compound is U-50488, which is tested in each experiment at several concentrations to obtain a competition curve from which its IC50 is calculated.

Assay [3] has as its target T3, Orexin type 1 (OX1R) receptor (Homo sapiens, UniProt O43613).
T3 construct: expressed in transfected cells; host or cells: CHO cells (G418 selection)
T3 sequence (O43613 1-425): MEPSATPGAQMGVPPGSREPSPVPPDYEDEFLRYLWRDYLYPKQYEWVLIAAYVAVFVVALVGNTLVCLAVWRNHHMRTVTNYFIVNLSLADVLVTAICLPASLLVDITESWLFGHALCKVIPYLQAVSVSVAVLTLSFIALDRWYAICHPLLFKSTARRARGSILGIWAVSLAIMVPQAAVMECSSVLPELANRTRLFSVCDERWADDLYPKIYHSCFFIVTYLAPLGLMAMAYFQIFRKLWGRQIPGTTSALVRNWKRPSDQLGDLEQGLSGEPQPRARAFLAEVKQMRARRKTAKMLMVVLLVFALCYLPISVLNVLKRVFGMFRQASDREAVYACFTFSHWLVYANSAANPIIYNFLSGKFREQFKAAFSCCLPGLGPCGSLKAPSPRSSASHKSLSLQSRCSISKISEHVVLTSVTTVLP
The assay can be described thus: In vitro orexin antagonism assay: intracellular calcium measurement (FLIPR), orexin-A 3 nM as agonist. The note with it: for IC50: first value of IC50/Kb cell; for inhibition at 1 µM: read-out: OX1R, % Inh. @ 1 uM; for Kb: second value of IC50/Kb cell. Type of assay: cell-based. In outline: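 CHO cells expressing the human orexin receptor were loaded with 3 μM fluo-4 AM plus 5 mM probenecid, then exposed to antagonist for 120 min before 3 nM orexin-A (final) was added on a FLIPR.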

Each structure is given as a SMILES string.

T2 sequence (P41145 whole entry): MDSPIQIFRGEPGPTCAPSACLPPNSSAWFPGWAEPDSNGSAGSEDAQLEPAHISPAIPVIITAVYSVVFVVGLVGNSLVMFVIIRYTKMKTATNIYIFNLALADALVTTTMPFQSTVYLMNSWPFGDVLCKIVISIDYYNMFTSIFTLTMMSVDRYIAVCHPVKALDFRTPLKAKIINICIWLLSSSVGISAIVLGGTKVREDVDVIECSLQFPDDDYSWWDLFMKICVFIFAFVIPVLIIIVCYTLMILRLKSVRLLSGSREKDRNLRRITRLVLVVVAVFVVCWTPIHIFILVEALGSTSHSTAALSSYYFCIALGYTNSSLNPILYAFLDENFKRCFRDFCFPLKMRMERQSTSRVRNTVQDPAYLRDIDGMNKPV

For the compound `O=C(c1c(-c2ccccc2)nc2cc(C(F)(F)F)ccn12)N1CCC[C@H]1Cn1ccc(-c2ccccn2)n1` [Example 78], the values for the IC50 in assay [1] and in assay [3] were 0.27 µM and 0.16 µM, respectively. Moreover, the values for the inhibition at 1 µM in assay [1], in assay [2] and in assay [3] were 55%, 52% and 78%, respectively. Moreover, the Kb (commonly the affinity of an antagonist, worked out from how it opposes an agonist) stood at 0.048 µM in assay [1] and 0.034 µM in assay [3].

Take `O=C(c1c(-c2ccccc2F)nn2ccccc12)N1CCC[C@H]1Cn1cc(-c2ccc(F)cn2)cn1` [Example 82]: the IC50 (as a rule, the concentration needed to halve the response being measured) in assay [1] is 0.046 µM; in assay [3], 0.22 µM. Moreover, the results for the inhibition at 1 µM in assay [1], in assay [2] and in assay [3] were 74%, 33% and 85%, respectively. The Kb in assay [1] and in assay [3] was 0.01 µM in each case.

`O=C(c1c(-c2ccccc2)nn2c1COCC2)N1[C@@H]2CC[C@@H](C2)[C@H]1COc1ccc(C(F)(F)F)cn1` [Example 87]: the inhibition at 1 µM in assay [1] was determined as 23%; in assay [2] it was 3%; in assay [3], 78%. In addition, in assay [3], the IC50 is 0.23 µM. Moreover, in assay [3], the Kb was determined as 0.049 µM.

Take `O=C(c1c(-c2ccccc2)nn2ccccc12)N1[C@@H]2CC[C@@H](C2)[C@H]1COc1ccc(C(F)(F)F)cn1` [Example 88]: in assay [1], the IC50 was 0.36 µM, the inhibition at 1 µM is 66% and the Kb stood at 0.063 µM. Further, in assay [2], the inhibition at 1 µM came out at 22%. In assay [3], the IC50 was 0.037 µM, the inhibition at 1 µM worked out at 97% and the Kb was 0.008 µM.

`O=C(c1c(-c2ccccc2)nc2ccccn12)N1[C@@H]2CC[C@@H](C2)[C@H]1COc1ccc(C(F)(F)F)cn1` [Example 89]: the inhibition at 1 µM stood at 46% in assay [1], 11% in assay [2] and 98% in assay [3]. Moreover, in assay [3], the IC50 was 0.08 µM. The Kb in assay [3] was determined as 0.002 µM.

As to `O=C(c1c(-c2ccccc2F)nn2ccccc12)N1CCC[C@H]1Cn1ccc(-c2ccc(F)cn2)n1` [Example 90], the “OX2R, % Inh. @ 1 uM” value in assay [1] (@ 1 uM) is 84%. In addition, in assay [1], the IC50 was found to be 0.015 µM and the Kb turned out to be 0.003 µM. Moreover, the “KOR % Inh. @ 1 uM” value in assay [2] (@ 1 uM) was 33%. The “OX1R, % Inh. @ 1 uM” value in assay [3] (@ 1 uM) turned out to be 99%. Also, in assay [3], the IC50 worked out at 0.006 µM and the Kb was determined as 0.001 µM.

Consider `O=C(c1nn2ccccc2c1-c1ccccc1)N1CCC[C@H]1Cn1ccc(-c2ccc(F)cn2)n1` [Example 111], for which, in assay [1], the IC50 amounted to 0.043 µM, the inhibition at 1 µM stood at 79% and the Kb was found to be 0.008 µM. The inhibition at 1 µM in assay [2] stood at 21%. In addition, in assay [3], the IC50 came to 0.014 µM, the inhibition at 1 µM was 100% and the Kb was found to be 0.003 µM.

For `O=C(c1nn2ccccc2c1-c1ccccc1)N1CC[C@H]1Cn1ccc(-c2ccc(F)cn2)n1` [Example 115], the inhibition at 1 µM in assay [1] amounted to 38%. Besides, the inhibition at 1 µM in assay [2] was 51%. In addition, in assay [3], the IC50 was determined as 0.65 µM, the inhibition at 1 µM came to 60% and the Kb was determined as 0.14 µM.

As to `O=C(c1nn2ccccc2c1-c1ccccc1)N1CCC[C@H]1Cc1nc(-c2ccc(F)cn2)no1` [Example 117], in assay [1], the IC50 was found to be 0.15 µM, the inhibition at 1 µM came out at 69% and the antagonist equilibrium constant (Kb) amounted to 0.026 µM. In addition, the inhibition at 1 µM in assay [2] was 19%. Further, in assay [3], the IC50 was determined as 0.002 µM, the inhibition at 1 µM amounted to 100% and the Kb came out at 0.0003 µM.

For the compound `O=C(c1nc2ccccn2c1-c1ccccc1)N1CCC[C@H]1Cn1cc(-c2ccccn2)cn1` [Example 118], the inhibition at 1 µM in assay [1] was determined as 45%. Also, the inhibition at 1 µM in assay [2] worked out at 35%. For the same compound, in assay [3], the IC50 stood at 0.005 µM, the inhibition at 1 µM was 100% and the Kb turned out to be 0.001 µM.

For the compound `O=C(c1nc2ccccn2c1-c1ccccc1)N1CCC[C@H]1Cn1ccc(-c2ccccn2)n1` [Example 119], in assay [1], the inhibition at 1 µM amounted to 37%. Moreover, in assay [2], the inhibition at 1 µM stood at 6%. In assay [3], the IC50 was found to be 0.005 µM, the inhibition at 1 µM was 100% and the Kb worked out at 0.001 µM.

Consider `O=C(c1c(-c2ccccc2)nn2ccccc12)N1CCC[C@H]1Cc1nc(-c2ccc(F)cn2)no1` [Example 120], for which the IC50 in assay [1] turned out to be 0.3 µM; in assay [3], 0.046 µM. Moreover, the inhibition at 1 µM in assay [1] is 63%; in assay [2], 22%; in assay [3] it was 80%. Also, the results for the Kb in assay [1] and in assay [3] were 0.052 µM and 0.01 µM, respectively.

For the compound `O=C(c1nc2ccccn2c1-c1ccccc1)N1CCC[C@H]1Cn1cc(-c2ccc(F)cn2)cn1` [Example 122], in assay [1], the inhibition at 1 µM stood at 51%. The inhibition at 1 µM in assay [2] worked out at 15%. Besides, in assay [3], the IC50 turned out to be 0.01 µM, the inhibition at 1 µM stood at 99% and the Kb was determined as 0.002 µM.

As to `O=C(c1nc2ccccn2c1-c1ccccc1)N1[C@@H]2CC[C@@H](C2)[C@H]1COc1ccc(C(F)(F)F)cn1` [Example 125], in assay [1], the IC50 amounted to 0.02 µM, the inhibition at 1 µM is 57% and the Kb turned out to be 0.003 µM. In assay [2], the inhibition at 1 µM came to 7%. Further, in assay [3], the IC50 was 0.19 µM, the inhibition at 1 µM worked out at 93% and the Kb came out at 0.041 µM.

As for `O=C(c1nc2ccccn2c1-c1ccccc1)N1[C@H](Cn2ccc(-c3ccc(F)cn3)n2)C[C@@H]2C[C@@H]21` [Example 126], the inhibition at 1 µM in assay [1] stood at 24%. In addition, the inhibition at 1 µM in assay [2] came out at 10%. In assay [3], the IC50 was found to be 0.017 µM, the inhibition at 1 µM was 99% and the Kb came to 0.004 µM.

Turning to `O=C(c1nc2ccccn2c1-c1ccccc1)N1CCC[C@H]1Cc1nc(-c2ccc(F)cn2)no1` [Example 127], the figures for the inhibition at 1 µM in assay [1], in assay [2] and in assay [3] were 31%, 17% and 100%, respectively. Besides, the IC50 in assay [3] is 0.005 µM. Also, the Kb in assay [3] turned out to be 0.001 µM.

For `O=C(c1nc2ccccn2c1-c1ccccc1)N1CCC[C@H]1Cc1nc(-c2ccccn2)no1` [Example 128], the inhibition at 1 µM in assay [1] was determined as 17%. Also, the inhibition at 1 µM in assay [2] came out at 19%. For the same compound, in assay [3], the IC50 stood at 0.007 µM, the inhibition at 1 µM was 100% and the Kb is 0.001 µM.

On to `O=C(c1nn2c(c1-c1ccccc1)COCC2)N1CCC[C@H]1Cn1ccc(-c2ccccc2)n1` [Example 129], for which, in assay [1], the IC50 worked out at 0.24 µM, the inhibition at 1 µM is 88% and the Kb was 0.041 µM. Besides, in assay [2], the inhibition at 1 µM worked out at 7%. Moreover, in assay [3], the IC50 is 0.006 µM, the inhibition at 1 µM is 100% and the Kb is 0.001 µM.

As for `O=C(c1nn2c(c1-c1ccccc1)OCCC2)N1CCC[C@H]1Cn1ccc(-c2ccccc2)n1` [Example 130], in assay [1], the IC50 amounted to 0.11 µM, the inhibition at 1 µM was determined as 98% and the Kb is 0.019 µM. Also, in assay [2], the inhibition at 1 µM stood at 53%. Further, in assay [3], the IC50 is 0.009 µM, the inhibition at 1 µM turned out to be 100% and the Kb is 0.002 µM.

For the compound `O=C(c1c(-c2ncccn2)nn2ccccc12)N1CCC[C@H]1Cn1ccc(-c2ccccc2)n1` [Example 131], in assay [1], the IC50 turned out to be 0.068 µM, the inhibition at 1 µM stood at 91% and the Kb was determined as 0.012 µM. Besides, the inhibition at 1 µM in assay [2] came to 27%. In assay [3], the IC50 was determined as 0.004 µM, the inhibition at 1 µM was determined as 100% and the Kb was 0.001 µM.
